Results published in patent publication US20110269763A1, “CRTH2 receptor ligands for medicinal uses” (7TM Pharma A/S, priority 2004, published 2011).
pIC50: −log10 of the molar value.

Each compound was assayed against T1, human CRTH2 (Homo sapiens, UniProt Q9Y5Y4, V204A) (assay: Functional antagonist BRET assay on HEK293 cells stably expressing human CRTH2-Rluc and GFP2-β-arr2). Settings: BRET, antagonist incubated 15 minutes prior to agonist; read-out: Antag. IC50.
T1 sequence (Q9Y5Y4 1-395 V204A): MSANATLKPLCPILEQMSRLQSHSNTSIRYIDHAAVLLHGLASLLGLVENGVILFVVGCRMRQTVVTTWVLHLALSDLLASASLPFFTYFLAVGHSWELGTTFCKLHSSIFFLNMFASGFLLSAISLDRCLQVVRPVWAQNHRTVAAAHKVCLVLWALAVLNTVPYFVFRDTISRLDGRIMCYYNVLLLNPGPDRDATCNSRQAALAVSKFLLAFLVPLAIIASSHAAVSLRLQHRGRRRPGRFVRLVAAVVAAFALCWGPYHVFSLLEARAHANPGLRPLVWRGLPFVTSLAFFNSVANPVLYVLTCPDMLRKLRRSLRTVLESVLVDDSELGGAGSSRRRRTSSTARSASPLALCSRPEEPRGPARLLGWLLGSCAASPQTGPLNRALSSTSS
Assay type: cell-based
Design: expressed in transfected cells
Text: (§1) Generation/origin of the cDNA Constructs. The coding sequence of the human CRTH2 receptor (genbank accession no NM_004778) was amplified by PCR from a human hippocampus cDNA library and inserted into the pcDNA3.1(+) expression vector (invitrogen) via 5′ HindIII and 3′ EcoRI. To generate a CRTH2-Renilla luciferase (CRTH2-Rluc) fusion protein, the CRTH2 coding sequence without a STOP codon and Rluc were amplified, fused in frame by PCR and subcloned into the pcDNA3.1(+)Zeo expression vector (invitrogen). Human β-arrestin2 (β-arr2) N-terminally tagged with GFP^2 (βarr2-GFP^2) and Renilla luciferase were purchased from BioSignal Packard Inc, (Montreal, Canada). The sequence identity of the construct was verified by restriction endonuclease digests and sequencing in both directions on an ABI Prism (Applied Biosystems, Foster City, Calif.).
(§2) Cell Culture and Transfection. COS-7 cells were grown in Dulbecco's modified Eagle's medium (DMEM) 1885 supplemented with 10% fetal bovine serum, 100 units/ml penicillin, […] streptomycin, and kept at 37° C. in a 10% CO2 atmosphere. HEK293 cells were maintained in Minimum Essential medium (MEM) supplemented with 10% (v/v) heat inactivated fetal calf serum (HIFCS), 2 mM Glutamax™-I, 1% non essential amino acids (NEAA), 1% sodium pyruvate and 10 μg/ml gentamicin. For binding experiments, COS7 cells were transiently transfected with the CRTH2 receptor using a calcium phosphate-DNA coprecipitation method with the addition of chloroquine (as described by Holst et al., 2001↓). To perform the functional Bioluminescence Resonance Energy Transfer (BRET) assays, a HEK293 cell clone stably expressing βarr2-GFP^2 and CRTH2-Rluc was generated (CRTH2-HEK293 cells).
BRET assay. Functional BRET assays were performed on HEK293 cells stably expressing human CRTH2-Rluc and GFP^2-β-arr2. Prior to their use in the BRET assay cells were detached and re-suspended in D-PBS with 1000 mg/L L-Glucose at a density of 2×10^6 cells/mL. DeepBlueC™ was diluted to 50 μM in D-PBS with 1000 mg/L L-Glucose (light sensitive). 100 μL of cell suspension was transferred to wells in a 96-well microplate (white OptiPlate) and placed in the Mithras LB 940 instrument (BERTHOLD TECHNOLOGIES, Bad Wildbad, Germany). 12 μL/well agonist was then injected by injector 1 and 10 μL/well DeepBlueC™ was injected simultaneously by injector 2. Five seconds after the injections the light output from the well was measured sequentially at 400 nm and 515 nm, and the BRET signal (mBRET ratio) was calculated by the ratio of the fluorescence emitted by GFP^2-β-arr2 (515 nm) over the light emitted by the receptor-Rluc (400 nm). Antagonists were added before placing the microplates into the Mithras LB 940 and allowed to incubate for 15 minutes prior to the addition of agonist and DeepBlueC™. Compounds were dissolved in DMSO and the final DMSO concentration was kept constant at 1% in the assay.
(§3) Curve analysis was performed with the GraphPadPrism software 3.0 (Graphpad Prism Inc., San Diego, USA) and IC50 values were calculated as a measure of the antagonistic potencies.

Row | pIC50 | Structure (SMILES)
1 | > 6.30 | O=C(O)COc1ccc(Br)cc1-c1coc(Cc2c(Cl)cccc2Cl)n1 [D91, {4-Bromo-2-[2-(2,6-dichlorobenzyl)oxazol-4-yl]phenoxy}acetic acid]
2 | < 5.30 | O=C(O)COc1ccc(Br)cc1-c1coc(-c2ccccc2)n1 [D83, [4-Bromo-2-(2-phenyloxazol-4-yl)phenoxy]acetic acid]
3 | > 6.30 | COc1ccc(-c2ccc(-c3nc(-c4cc(Br)ccc4OCC(=O)O)no3)cc2)cc1 [D134, {4-Bromo-2-[5-(4′-methoxybiphenyl-4-yl)-[1,2,4]oxadiazol-3-yl]phenoxy}acetic acid]

Further lines, the compound ahead of its results:

Row | Structure (SMILES) | pIC50
4 | O=C(O)COc1ccccc1C(=O)c1cnn(-c2ccccc2)c1 [D2, 2-(1-Phenyl-1H-pyrazole-4-carbonyl)phenoxyacetic acid] | 5.30 to 6.30
5 | O=C(O)COc1ccc(Br)cc1C(=O)c1cnn(-c2ccccc2F)c1 [D22, 4-Bromo-2-[1-(2-fluorophenyl)-1H-pyrazole-4-carbonyl]phenoxyacetic acid] | > 6.30
6 | O=C(O)COc1ccc([N+](=O)[O-])cc1C(=O)c1cnn(-c2ccc(Cl)cc2)c1 [D19, 4-Nitro-2-[1-(4-chlorophenyl)-1H-pyrazole-4-carbonyl]phenoxyacetic acid] | > 6.30
7 | O=C(O)COc1ccc([N+](=O)[O-])cc1C(=O)c1cnn(-c2ccccc2Br)c1 [D28, 4-Nitro-2-[1-(2-bromophenyl)-1H-pyrazole-4-carbonyl]phenoxyacetic acid] | > 6.30
8 | CC(Oc1ccc(Br)cc1C(=O)c1cnn(-c2ccc(Cl)c(Cl)c2)c1)C(=O)O (stereo not shown) [D64, 2-{4-Bromo-2-[1-(3,4-dichloro-phenyl)-1H-pyrazole-4-carbonyl]phenoxy}propionic acid] | > 6.30
9 | CC(Oc1ccc(Br)cc1C(=O)c1cnn(-c2cc(Cl)ccc2Cl)c1)C(=O)O (stereo not shown) [D63, 2-{4-Bromo-2-[1-(2,5-dichlorophenyl)-1H-pyrazole-4-carbonyl]phenoxy}propionic acid] | > 6.30
10 | Cc1cccc(C)c1-n1cc(C(=O)c2cc(Br)ccc2OCC(=O)O)cn1 [D71, {4-Bromo-2-[1-(2,6-dimethylphenyl)-1H-pyrazole-4-carbonyl]phenoxy}acetic acid] | > 6.30
11 | O=C(O)COc1ccc(Br)cc1C(=O)c1cnn(-c2c(Cl)cccc2Cl)c1 [D29, 4-Bromo-2-[1-(2,6-dichlorophenyl)-1H-pyrazole-4-carbonyl]phenoxyacetic acid] | > 6.30

Same assay, conditions: functional antagonist assay, Table 3; read-out: Antag. IC50

Row | pIC50 | Structure (SMILES)
12 | > 6.30 | COc1cccc(-c2noc(-c3cc(Br)ccc3OCC(=O)O)n2)c1 [D104, {4-Bromo-2-[3-(3-methoxyphenyl)-[1,2,4]oxadiazol-5-yl]phenoxy}acetic acid]
13 | > 6.30 | O=C(O)COc1ccc(Br)cc1-c1nc(Cc2ccc(Cl)cc2Cl)no1 [D122, {4-Bromo-2-[3-(2,4-dichloro-benzyl)-[1,2,4]oxadiazol-5-yl]-phenoxy}-acetic acid]
14 | > 6.30 | O=C(O)COc1ccc(Br)cc1-c1nc(-c2cccc(Cl)c2)no1 [D105, {4-Bromo-2-[3-(3-chlorophenyl)-[1,2,4]oxadiazol-5-yl]phenoxy}acetic acid]

The compounds below were run against T1, human CRTH2 (assay: Receptor binding assay: [3H]PGD2 competition binding on whole COS-7 cells transiently transfected with CRTH2 (also stable HEK293 cells)). Settings: competition with 0.1 nM [3H]PGD2, whole cells, 3 h at 4° C.
Design: expressed in transfected cells; host or cells: COS-7 (transient, calcium phosphate)
Text: as §1, §2
Binding assay. 24 h after transfection COS-7 cells were seeded into 96 well plates at a density of 30.000 cells/well. Competition binding experiments on whole cells were then performed about 18-24 h later using 0.1 nM [^3H]PGD2 (NEN, 172 Ci/mmol) in a binding buffer consisting of HBSS (GIBCO) and 10 mM HEPES. Competing ligands were diluted in DMSO which was kept constant at 1% (v/v) of the final incubation volume. Total and nonspecific binding were determined in the absence and presence of 10 μM PGD2. Binding reactions were routinely conducted for 3 h at 4° C. and terminated by 2 washes (100 μl each) with ice cold binding buffer. Radioactivity was determined by liquid scintillation counting in a TOPCOUNTER (Packard) following over night incubation in Microscint 20. Stable HEK293 cells were seeded at a density of 30.000 cells/well 18-24 h prior to the binding assay which was performed essentially as described for COS7 cells above. Determinations were made in duplicates.
as §3

Row | pIC50 | Structure (SMILES)
15 | > 6.30 | O=C(O)COc1ccc(Br)cc1-c1coc(Cc2c(Cl)cccc2Cl)n1 [D91, {4-Bromo-2-[2-(2,6-dichlorobenzyl)oxazol-4-yl]phenoxy}acetic acid]
16 | > 6.30 | O=C(O)COc1ccc(Br)cc1-c1coc(-c2ccccc2)n1 [D83, [4-Bromo-2-(2-phenyloxazol-4-yl)phenoxy]acetic acid]
17 | > 6.30 | COc1ccc(-c2ccc(-c3nc(-c4cc(Br)ccc4OCC(=O)O)no3)cc2)cc1 [D134, {4-Bromo-2-[5-(4′-methoxybiphenyl-4-yl)-[1,2,4]oxadiazol-3-yl]phenoxy}acetic acid]

The next lines start with the compound.

Row | Structure (SMILES) | pIC50
18 | O=C(O)COc1ccccc1C(=O)c1cnn(-c2ccccc2)c1 [D2, 2-(1-Phenyl-1H-pyrazole-4-carbonyl)phenoxyacetic acid] | > 6.30
19 | O=C(O)COc1ccc(Br)cc1C(=O)c1cnn(-c2ccccc2F)c1 [D22, 4-Bromo-2-[1-(2-fluorophenyl)-1H-pyrazole-4-carbonyl]phenoxyacetic acid] | > 6.30
20 | O=C(O)COc1ccc([N+](=O)[O-])cc1C(=O)c1cnn(-c2ccc(Cl)cc2)c1 [D19, 4-Nitro-2-[1-(4-chlorophenyl)-1H-pyrazole-4-carbonyl]phenoxyacetic acid] | > 6.30
21 | O=C(O)COc1ccc([N+](=O)[O-])cc1C(=O)c1cnn(-c2ccccc2Br)c1 [D28, 4-Nitro-2-[1-(2-bromophenyl)-1H-pyrazole-4-carbonyl]phenoxyacetic acid] | > 6.30
22 | CC(Oc1ccc(Br)cc1C(=O)c1cnn(-c2ccc(Cl)c(Cl)c2)c1)C(=O)O (stereo not shown) [D64, 2-{4-Bromo-2-[1-(3,4-dichloro-phenyl)-1H-pyrazole-4-carbonyl]phenoxy}propionic acid] | > 6.30
23 | CC(Oc1ccc(Br)cc1C(=O)c1cnn(-c2cc(Cl)ccc2Cl)c1)C(=O)O (stereo not shown) [D63, 2-{4-Bromo-2-[1-(2,5-dichlorophenyl)-1H-pyrazole-4-carbonyl]phenoxy}propionic acid] | > 6.30
24 | Cc1cccc(C)c1-n1cc(C(=O)c2cc(Br)ccc2OCC(=O)O)cn1 [D71, {4-Bromo-2-[1-(2,6-dimethylphenyl)-1H-pyrazole-4-carbonyl]phenoxy}acetic acid] | > 6.30
25 | O=C(O)COc1ccc(Br)cc1C(=O)c1cnn(-c2c(Cl)cccc2Cl)c1 [D29, 4-Bromo-2-[1-(2,6-dichlorophenyl)-1H-pyrazole-4-carbonyl]phenoxyacetic acid] | > 6.30

Same assay, conditions: receptor binding assay, Table 3

Row | pIC50 | Structure (SMILES)
26 | > 6.30 | COc1cccc(-c2noc(-c3cc(Br)ccc3OCC(=O)O)n2)c1 [D104, {4-Bromo-2-[3-(3-methoxyphenyl)-[1,2,4]oxadiazol-5-yl]phenoxy}acetic acid]
27 | > 6.30 | O=C(O)COc1ccc(Br)cc1-c1nc(Cc2ccc(Cl)cc2Cl)no1 [D122, {4-Bromo-2-[3-(2,4-dichloro-benzyl)-[1,2,4]oxadiazol-5-yl]-phenoxy}-acetic acid]
28 | > 6.30 | O=C(O)COc1ccc(Br)cc1-c1nc(-c2cccc(Cl)c2)no1 [D105, {4-Bromo-2-[3-(3-chlorophenyl)-[1,2,4]oxadiazol-5-yl]phenoxy}acetic acid]
